Results on 21 compounds are retold here after PubChem BioAssay (NCI).

Structures are written as SMILES.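 Assay format: 96-well plates, 48-hour exposure. GI50: concentration for 50% inhibition of growth. The concentration for full growth arrest is given as TGI.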

In the first assay the test system is CCRF-CEM leukemia. Nature of the assay: inhibition of tumour cell growth, NCI panel, 48 h.
Compound `CCc1c(Oc2ccc(C(C)=O)cc2)c2ccccc2[nH]c1=O` registered a TGI of over 43.6 µM.

On to `Cc1nn(CN2CCN(C)CC2)c(=S)n1/N=C/c1cccc2ccccc12`, for which the GI50 was 23.4 µM and the TGI stood at 55.3 µM.

For the compound `Cc1ccc(CS/C(=C\c2ccc([N+](=O)[O-])cc2)C(=O)c2ccc(F)cc2)cc1`, the GI50 is 2.23 µM and the TGI is over 100 µM.

For `CN1CCN(Cc2ccc(NC(=O)c3cncc(C#Cc4cnc(N)c5ccc(C#N)cc45)c3)cc2C(F)(F)F)CC1`, the GI50 was 0.0803 µM and the TGI came to 2.05 µM.

Compound `CC(=O)Nc1ccccc1Sc1ccccc1` had a TGI of over 100 µM.

In turn, `COC(=O)C[C@H]1CCC2(OCCO2)[C@]1(C)C(=O)OC` returned a TGI of over 100 µM.

For the compound `O=C(O)Cn1ccc(=O)c2ccc([N+](=O)[O-])cc21`, the TGI was over 100 µM.

The compound `CCCCCCCCCC[C@@H](O)[C@@H]1CC[C@H]([C@H]2CC[C@@H]([C@@H](O)CCCCCCCCCC[C@H]3CC(CC(C)=O)C(=O)O3)O2)O1` (stereo partly specified) had a TGI of 33.4 µM.

As to `C=C(CN1CCc2ccccc2C1)c1ccc(C(=O)Nc2cnccn2)cc1`, the GI50 was 5.42 µM and the TGI is over 100 µM.

Regarding `CCOc1ccc2c(c1)[n+]([O-])c(S(=O)(=O)c1ccc(C)cc1)c(N)[n+]2[O-]`, the TGI is over 100 µM.

In the case of `O=C1c2cccc(NCCN=Cc3cc(O)ccc3O)c2C(=O)c2c(NCCN=Cc3cc(O)ccc3O)cccc21`, the GI50 was 0.351 µM and the TGI worked out at 1.63 µM.

For `COc1ccc(CNc2cc(OC)c(OC)c(OC)c2)cc1`, the TGI is over 100 µM.

With `CCCCCCCCCCCC(=O)CC(=O)c1c(O)cccc1O`, the TGI is over 100 µM.

Take `CN(C(=O)C12C3C4C1C1C2C3C41C(=O)C(C)(C)C)C(C)(C)C` (stereo unspecified): the TGI was over 100 µM.

As to `Cn1cc(-c2cnc3ccc(NC(=O)Nc4ccc(F)c(Br)c4)cc3n2)cn1`, the GI50 was 2.06 µM and the TGI is 6.21 µM.

As for `COc1cc(/C=C/c2cc(/C=C/c3ccc(O)c(OC)c3)n(-c3ccccc3)n2)ccc1O`, the GI50 is 0.127 µM and the TGI is over 100 µM.

In turn, `O=C1CNCCCN2CCN(CCCNCC(=O)Nc3ccc(cc3)S(=O)(=O)c3ccc(cc3)NC(=O)CNCCCN3CCN(CCCNCC(=O)Nc4ccc(cc4)S(=O)(=O)c4ccc(cc4)N1)CC3)CC2` showed a TGI of over 100 µM.

On to `Cc1ccc(-c2c3c([nH]c(=O)c2C#N)-c2cc(F)ccc2OC3)cc1`, for which the GI50 is 1.19 µM and the TGI came out at 7.25 µM.

In the next assay the test system is COLO 205 colon. Briefly: inhibition of tumour cell growth, NCI panel, 48 h.
Consider `CCc1c(Oc2ccc(C(C)=O)cc2)c2ccccc2[nH]c1=O`, for which the GI50 was 13.7 µM and the TGI turned out to be 40.7 µM.

For the compound `Cc1nn(CN2CCN(C)CC2)c(=S)n1/N=C/c1cccc2ccccc12`, the GI50 was 10.8 µM and the TGI was 26.6 µM.

Regarding `Cc1ccc(CS/C(=C\c2ccc([N+](=O)[O-])cc2)C(=O)c2ccc(F)cc2)cc1`, the GI50 is 3.72 µM and the TGI came to 16.6 µM.

On to `CN1CCN(Cc2ccc(NC(=O)c3cncc(C#Cc4cnc(N)c5ccc(C#N)cc45)c3)cc2C(F)(F)F)CC1`, for which the GI50 is 0.0178 µM and the TGI turned out to be 0.722 µM.

The compound `CC(=O)Nc1ccccc1Sc1ccccc1` gave a TGI of over 100 µM.

`COC(=O)C[C@H]1CCC2(OCCO2)[C@]1(C)C(=O)OC` displayed a TGI of over 100 µM.

In turn, `O=C(O)Cn1ccc(=O)c2ccc([N+](=O)[O-])cc21` showed a TGI of over 100 µM.

Regarding `CCCCCCCCCC[C@@H](O)[C@@H]1CC[C@H]([C@H]2CC[C@@H]([C@@H](O)CCCCCCCCCC[C@H]3CC(CC(C)=O)C(=O)O3)O2)O1` (stereo partly specified), the TGI amounted to 28.8 µM.

For `C=C(CN1CCc2ccccc2C1)c1ccc(C(=O)Nc2cnccn2)cc1`, the GI50 is 17.5 µM and the TGI came out at 40.1 µM.

`CCOc1ccc2c(c1)[n+]([O-])c(S(=O)(=O)c1ccc(C)cc1)c(N)[n+]2[O-]` had a TGI of over 100 µM.

As for `O=C1c2cccc(NCCN=Cc3cc(O)ccc3O)c2C(=O)c2c(NCCN=Cc3cc(O)ccc3O)cccc21`, the GI50 is 0.495 µM and the TGI was 1.94 µM.

Consider `COc1ccc(CNc2cc(OC)c(OC)c(OC)c2)cc1`, for which the TGI came out at 9.34 µM.

Consider `CSc1cc(N=Nc2nc3ccccc3s2)c2ccccc2c1O`, for which the GI50 is 14.2 µM and the TGI was over 50 µM.

In turn, `O=C1NNC=Nc2ccc(cc2)S(=O)(=O)c2ccc(cc2)N=CNNC1=O` displayed a TGI of over 100 µM.

In the case of `COc1cc2c3c(n(C)c(=O)c2cc1OC)-c1cc2c(cc1/C3=C\CCCN1C(=O)c3ccccc3C1=O)OCO2`, the GI50 was over 40 µM and the TGI was over 40 µM.

Compound `CCCCCCCCCCCC(=O)CC(=O)c1c(O)cccc1O` showed a TGI of 31.2 µM.

On to `CN(C(=O)C12C3C4C1C1C2C3C41C(=O)C(C)(C)C)C(C)(C)C` (stereo unspecified), for which the TGI is over 100 µM.

In the case of `Cn1cc(-c2cnc3ccc(NC(=O)Nc4ccc(F)c(Br)c4)cc3n2)cn1`, the GI50 was 1.59 µM and the TGI is 3.24 µM.

As to `COc1cc(/C=C/c2cc(/C=C/c3ccc(O)c(OC)c3)n(-c3ccccc3)n2)ccc1O`, the GI50 was 1.77 µM and the TGI was 3.31 µM.

On to `O=C1CNCCCN2CCN(CCCNCC(=O)Nc3ccc(cc3)S(=O)(=O)c3ccc(cc3)NC(=O)CNCCCN3CCN(CCCNCC(=O)Nc4ccc(cc4)S(=O)(=O)c4ccc(cc4)N1)CC3)CC2`, for which the TGI was 96.9 µM.

For the compound `Cc1ccc(-c2c3c([nH]c(=O)c2C#N)-c2cc(F)ccc2OC3)cc1`, the GI50 is over 100 µM and the TGI is over 100 µM.

The next assay concerns HL-60(TB) leukemia. Nature of the assay: inhibition of tumour cell growth, NCI panel, 48 h.
With `Cc1nn(CN2CCN(C)CC2)c(=S)n1/N=C/c1cccc2ccccc12`, the GI50 was 16.7 µM and the TGI was found to be 37 µM.

On to `Cc1ccc(CS/C(=C\c2ccc([N+](=O)[O-])cc2)C(=O)c2ccc(F)cc2)cc1`, for which the GI50 is 2.9 µM and the TGI is 17.3 µM.

In the case of `CN1CCN(Cc2ccc(NC(=O)c3cncc(C#Cc4cnc(N)c5ccc(C#N)cc45)c3)cc2C(F)(F)F)CC1`, the GI50 is 0.0483 µM and the TGI came to 1.05 µM.

With `CC(=O)Nc1ccccc1Sc1ccccc1`, the TGI is over 100 µM.

Compound `COC(=O)C[C@H]1CCC2(OCCO2)[C@]1(C)C(=O)OC` returned a TGI of over 100 µM.
